Reference: paper PMC4176160, “Characterization of three mycobacterial DinB (DNA polymerase IV) paralogs highlights DinB2 as naturally adept at ribonucleotide incorporation” (Nucleic Acids Research, 2014)
Like-named read-outs stand apart in the source and are kept apart here. One block for each molecule: values may come before it.

Molecular target: T1, DinB2 (MsmDinB2) (Mycolicibacterium smegmatis, UniProt A0QR77)
T1 construct: gene dinB; full-length 356 aa, 39 kDa, monomer; expressed in E. coli BL21(DE3) as His10Smt3 fusion, tag removed with Ulp1
Assay: primer extension, kobs of first nucleotide addition vs nucleotide concentration, hyperbolic fit
Type: biochemical
Conditions: 5 mM MgCl2, 10 mM Tris-HCl pH 7.5, 37 °C, 1 μM enzyme, read-out: apparent Kd

[1] = 50 nM 13-mer/18-mer DNA primer-template with dG as first template base
[2] = 50 nM 13-mer/18-mer DNA primer-template with dT as first template base
[3] = 50 nM 13-mer/18-mer DNA primer-template with dA as first template base
[4] = 50 nM 13-mer/18-mer DNA primer-template with dC as first template base

T1 sequence (A0QR77 entry or part of it): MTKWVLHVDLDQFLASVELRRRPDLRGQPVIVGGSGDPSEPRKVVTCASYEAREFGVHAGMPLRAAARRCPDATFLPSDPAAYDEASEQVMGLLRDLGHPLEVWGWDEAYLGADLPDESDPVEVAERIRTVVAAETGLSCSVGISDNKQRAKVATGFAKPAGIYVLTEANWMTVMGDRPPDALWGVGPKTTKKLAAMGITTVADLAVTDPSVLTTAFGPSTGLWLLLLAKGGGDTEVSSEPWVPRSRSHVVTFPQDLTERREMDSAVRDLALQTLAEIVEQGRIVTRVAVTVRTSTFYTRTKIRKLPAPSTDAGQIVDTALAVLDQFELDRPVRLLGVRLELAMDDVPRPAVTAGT

SMILES: Nc1ccn([C@@H]2O[C@H](COP(=O)(O)OP(=O)(O)OP(=O)(O)O)[C@@H](O)[C@H]2O)c(=O)n1 [CTP]
Kd [1]: 44 µM

SMILES: Cc1cn([C@H]2C[C@H](O)[C@@H](COP(=O)(O)OP(=O)(O)OP(=O)(O)O)O2)c(=O)[nH]c1=O [dTTP]
Kd [3]: 8 µM

SMILES: O=c1ccn([C@@H]2O[C@H](COP(=O)(O)OP(=O)(O)OP(=O)(O)O)[C@@H](O)[C@H]2O)c(=O)[nH]1 [UTP]
Kd [3]: 411 µM

SMILES: Nc1ncnc2c1ncn2[C@H]1C[C@H](O)[C@@H](COP(=O)(O)OP(=O)(O)OP(=O)(O)O)O1 [dATP]
Kd [2]: 0.85 µM

SMILES: Nc1ccn([C@H]2C[C@H](O)[C@@H](COP(=O)(O)OP(=O)(O)OP(=O)(O)O)O2)c(=O)n1 [dCTP]
Kd [1]: 1.5 µM

Next, values leading:

Kd [2]: 66 µM
SMILES: Nc1ncnc2c1ncn2[C@@H]1O[C@H](COP(=O)(O)OP(=O)(O)OP(=O)(O)O)[C@@H](O)[C@H]1O [ATP]

Kd [4]: 0.87 µM
SMILES: Nc1nc2c(ncn2[C@H]2C[C@H](O)[C@@H](COP(=O)(O)OP(=O)(O)OP(=O)(O)O)O2)c(=O)[nH]1 [dGTP]

Kd [4]: 22 µM
SMILES: Nc1nc2c(ncn2[C@@H]2O[C@H](COP(=O)(O)OP(=O)(O)OP(=O)(O)O)[C@@H](O)[C@H]2O)c(=O)[nH]1 [GTP]
